Test results reported in PubChem BioAssay (NCI).
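48-hour exposure; five concentrations; linearly interpolated endpoints. GI50 = concentration required for 50% inhibition of growth. Definition used: TGI = concentration required for complete inhibition of growth.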

Tests used:
Test in all cases: NCI-60 cell line screen, 48 h
OVCAR-5 ovarian = system: OVCAR-5 ovarian
CCRF-CEM leukemia = system: CCRF-CEM leukemia
SW-620 colon = system: SW-620 colon
A549 NSCLC = system: A549 NSCLC
SNB-75 CNS = system: SNB-75 CNS
T-47D breast = system: T-47D breast
U251 CNS = system: U251 CNS
EKVX NSCLC = system: EKVX NSCLC
OVCAR-8 ovarian = system: OVCAR-8 ovarian
MCF7 breast = system: MCF7 breast
DU-145 prostate = system: DU-145 prostate
OVCAR-3 ovarian = system: OVCAR-3 ovarian
NCI-H23 lung = system: NCI-H23 lung
OVCAR-4 ovarian = system: OVCAR-4 ovarian
CAKI-1 renal = system: CAKI-1 renal
MDA-MB-435 = system: MDA-MB-435
HT29 colon = system: HT29 colon
MALME-3M melanoma = system: MALME-3M melanoma
NCI-H522 lung = system: NCI-H522 lung
TK-10 renal = system: TK-10 renal
HOP-92 NSCLC = system: HOP-92 NSCLC
UACC-257 melanoma = system: UACC-257 melanoma
KM12 colon = system: KM12 colon
SNB-19 CNS = system: SNB-19 CNS
HS 578T breast = system: HS 578T breast
ACHN renal = system: ACHN renal
PC-3 prostate = system: PC-3 prostate
UACC-62 melanoma = system: UACC-62 melanoma
NCI-H460 lung = system: NCI-H460 lung
SF-268 CNS = system: SF-268 CNS
SN12C renal = system: SN12C renal
HCC-2998 colon = system: HCC-2998 colon
NCI/ADR-RES ovarian = system: NCI/ADR-RES ovarian
MDA-MB-231 breast = system: MDA-MB-231 breast
SF-539 CNS = system: SF-539 CNS
NCI-H226 lung = system: NCI-H226 lung
K-562 leukemia = system: K-562 leukemia
SR leukemia = system: SR leukemia
SK-MEL-28 melanoma = system: SK-MEL-28 melanoma
RPMI-8226 leukemia = system: RPMI-8226 leukemia
786-0 renal = system: 786-0 renal
M14 melanoma = system: M14 melanoma
HL-60(TB) leukemia = system: HL-60(TB) leukemia
UO-31 renal = system: UO-31 renal
SK-MEL-2 melanoma = system: SK-MEL-2 melanoma
MOLT-4 leukemia = system: MOLT-4 leukemia
A498 renal = system: A498 renal
BT-549 breast = system: BT-549 breast
HCT-15 colon = system: HCT-15 colon
SF-295 CNS = system: SF-295 CNS
HOP-62 NSCLC = system: HOP-62 NSCLC
COLO 205 colon = system: COLO 205 colon
LOX IMVI melanoma = system: LOX IMVI melanoma
RXF 393 renal = system: RXF 393 renal
SK-MEL-5 melanoma = system: SK-MEL-5 melanoma
IGROV1 ovarian = system: IGROV1 ovarian
HCT-116 colon = system: HCT-116 colon
SK-OV-3 ovarian = system: SK-OV-3 ovarian

## O=c1c(-c2nc3ccccc3[nH]2)cc2ccccc2n1Cc1cn(Cc2ccccc2Cl)nn1
OVCAR-5 ovarian
  GI50: 2.1 µM
  TGI: 4.78 µM
CCRF-CEM leukemia
  GI50: 8.58 µM
  TGI: > 100 µM
SW-620 colon
  GI50: 2.87 µM
  TGI: 10.4 µM
A549 NSCLC
  GI50: 2.05 µM
  TGI: 4.38 µM
SNB-75 CNS
  GI50: 1.36 µM
  TGI: 3.2 µM
T-47D breast
  GI50: 2.85 µM
  TGI: 9.88 µM
U251 CNS
  GI50: 2.41 µM
  TGI: 7.13 µM
EKVX NSCLC
  GI50: 2.74 µM
  TGI: 20.2 µM
OVCAR-8 ovarian
  GI50: 2.56 µM
  TGI: 9.27 µM
MCF7 breast
  GI50: 1.78 µM
  TGI: 3.77 µM
DU-145 prostate
  GI50: 1.72 µM
  TGI: 3.21 µM
OVCAR-3 ovarian
  GI50: 2.01 µM
  TGI: 4.17 µM
NCI-H23 lung
  GI50: 3.43 µM
  TGI: 24.3 µM
OVCAR-4 ovarian
  GI50: 1.72 µM
  TGI: 3.44 µM
CAKI-1 renal
  GI50: 1.93 µM
  TGI: 4.74 µM
MDA-MB-435
  GI50: 1.9 µM
  TGI: 3.93 µM
HT29 colon
  GI50: 2.2 µM
  TGI: 4.7 µM
MALME-3M melanoma
  GI50: 1.62 µM
  TGI: 3.65 µM
NCI-H522 lung
  GI50: 2.24 µM
  TGI: 7.98 µM
TK-10 renal
  GI50: 2.52 µM
  TGI: 6.65 µM
HOP-92 NSCLC
  GI50: 1.85 µM
  TGI: 4.93 µM
UACC-257 melanoma
  GI50: 3.18 µM
  TGI: 12.6 µM
KM12 colon
  GI50: 2.5 µM
  TGI: 7.72 µM
SNB-19 CNS
  GI50: 4.32 µM
  TGI: 28.3 µM
HS 578T breast
  GI50: 1.93 µM
  TGI: 5.91 µM
ACHN renal
  GI50: 1.71 µM
  TGI: 3.27 µM
PC-3 prostate
  GI50: 2.6 µM
  TGI: 7.5 µM
UACC-62 melanoma
  GI50: 1.73 µM
  TGI: 3.57 µM
NCI-H460 lung
  GI50: 2.01 µM
  TGI: 3.88 µM
SF-268 CNS
  GI50: 2.4 µM
  TGI: 8.74 µM
SN12C renal
  GI50: 1.87 µM
  TGI: 3.75 µM
HCC-2998 colon
  GI50: 4.19 µM
  TGI: 37.4 µM
NCI/ADR-RES ovarian
  GI50: 1.94 µM
  TGI: 4.22 µM
MDA-MB-231 breast
  GI50: 1.71 µM
  TGI: 3.79 µM
SF-539 CNS
  GI50: 1.78 µM
  TGI: 3.66 µM
NCI-H226 lung
  GI50: 2.3 µM
  TGI: 6.99 µM
K-562 leukemia
  GI50: 3.33 µM
  TGI: 12.9 µM
SR leukemia
  GI50: 2.41 µM
  TGI: 8.64 µM
SK-MEL-28 melanoma
  GI50: 1.82 µM
  TGI: 3.35 µM
RPMI-8226 leukemia
  GI50: 3.02 µM
  TGI: 10.8 µM
786-0 renal
  GI50: 1.66 µM
  TGI: 3.27 µM
M14 melanoma
  GI50: 2.65 µM
  TGI: 9.33 µM
HL-60(TB) leukemia
  GI50: 6.22 µM
  TGI: > 100 µM
UO-31 renal
  GI50: 1.33 µM
  TGI: 2.88 µM
SK-MEL-2 melanoma
  GI50: 3.07 µM
  TGI: 10.8 µM
MOLT-4 leukemia
  GI50: 2.36 µM
  TGI: > 100 µM

## Cn1c(O)c(C=Nc2ccc(Cl)cc2Cl)c(=O)n(C)c1=O
OVCAR-5 ovarian
  TGI: > 100 µM
A498 renal
  TGI: > 100 µM
CCRF-CEM leukemia
  TGI: > 100 µM
BT-549 breast
  TGI: > 100 µM
SW-620 colon
  TGI: > 100 µM
HCT-15 colon
  TGI: > 100 µM
A549 NSCLC
  TGI: > 100 µM
SF-295 CNS
  TGI: > 100 µM
HOP-62 NSCLC
  TGI: > 100 µM
SNB-75 CNS
  TGI: > 100 µM
T-47D breast
  TGI: > 100 µM
COLO 205 colon
  TGI: > 100 µM
U251 CNS
  TGI: > 100 µM
EKVX NSCLC
  TGI: > 100 µM
OVCAR-8 ovarian
  TGI: > 100 µM
MCF7 breast
  TGI: > 100 µM
LOX IMVI melanoma
  TGI: > 100 µM
OVCAR-3 ovarian
  TGI: > 100 µM
NCI-H23 lung
  TGI: > 100 µM
OVCAR-4 ovarian
  TGI: > 100 µM
CAKI-1 renal
  TGI: > 100 µM
MDA-MB-435
  TGI: > 100 µM
HT29 colon
  TGI: > 100 µM
RXF 393 renal
  TGI: > 100 µM
MALME-3M melanoma
  TGI: > 100 µM
SK-MEL-5 melanoma
  TGI: > 100 µM
NCI-H522 lung
  TGI: > 100 µM
TK-10 renal
  TGI: > 100 µM
HOP-92 NSCLC
  TGI: > 100 µM
UACC-257 melanoma
  TGI: > 100 µM
KM12 colon
  TGI: > 100 µM
SNB-19 CNS
  TGI: > 100 µM
IGROV1 ovarian
  TGI: > 100 µM
HS 578T breast
  TGI: > 100 µM
ACHN renal
  TGI: > 100 µM
PC-3 prostate
  TGI: > 100 µM
UACC-62 melanoma
  TGI: > 100 µM
NCI-H460 lung
  TGI: > 100 µM
SF-268 CNS
  TGI: > 100 µM
SN12C renal
  TGI: > 100 µM
HCC-2998 colon
  TGI: > 100 µM
NCI/ADR-RES ovarian
  TGI: > 100 µM
MDA-MB-231 breast
  TGI: > 100 µM
SF-539 CNS
  TGI: > 100 µM
NCI-H226 lung
  TGI: > 100 µM
K-562 leukemia
  TGI: > 100 µM
HCT-116 colon
  TGI: > 100 µM
SR leukemia
  TGI: > 100 µM
RPMI-8226 leukemia
  TGI: > 100 µM
786-0 renal
  TGI: > 100 µM
M14 melanoma
  TGI: > 100 µM
SK-OV-3 ovarian
  TGI: > 100 µM
UO-31 renal
  TGI: > 100 µM
SK-MEL-2 melanoma
  TGI: > 100 µM
MOLT-4 leukemia
  TGI: > 100 µM

## COc1cc2c(cc1OC)-c1ncc3cc(OC)c(OC)cc3c1C2
OVCAR-5 ovarian
  GI50: > 50 µM
  TGI: > 50 µM
CCRF-CEM leukemia
  GI50: 25.9 µM
  TGI: > 50 µM
SW-620 colon
  GI50: > 50 µM
  TGI: > 50 µM
HCT-15 colon
  GI50: > 50 µM
  TGI: > 50 µM
A549 NSCLC
  GI50: > 50 µM
  TGI: > 50 µM
SF-295 CNS
  GI50: > 50 µM
  TGI: > 50 µM
SNB-75 CNS
  GI50: > 50 µM
  TGI: > 50 µM
T-47D breast
  GI50: > 50 µM
  TGI: > 50 µM
COLO 205 colon
  GI50: > 50 µM
  TGI: > 50 µM
U251 CNS
  GI50: > 50 µM
  TGI: > 50 µM
EKVX NSCLC
  GI50: > 50 µM
  TGI: > 50 µM
OVCAR-8 ovarian
  GI50: > 50 µM
  TGI: > 50 µM
MCF7 breast
  GI50: > 50 µM
  TGI: > 50 µM
DU-145 prostate
  GI50: > 50 µM
  TGI: > 50 µM
LOX IMVI melanoma
  GI50: > 50 µM
  TGI: > 50 µM
OVCAR-3 ovarian
  GI50: > 50 µM
  TGI: > 50 µM
NCI-H23 lung
  GI50: > 50 µM
  TGI: > 50 µM
OVCAR-4 ovarian
  GI50: > 50 µM
  TGI: > 50 µM
CAKI-1 renal
  GI50: > 50 µM
  TGI: > 50 µM
MDA-MB-435
  GI50: > 50 µM
  TGI: > 50 µM
HT29 colon
  GI50: > 50 µM
  TGI: > 50 µM
RXF 393 renal
  GI50: > 50 µM
  TGI: > 50 µM
SK-MEL-5 melanoma
  GI50: > 50 µM
  TGI: > 50 µM
NCI-H522 lung
  GI50: 24.5 µM
  TGI: > 50 µM
TK-10 renal
  GI50: > 50 µM
  TGI: > 50 µM
HOP-92 NSCLC
  GI50: > 50 µM
  TGI: > 50 µM
UACC-257 melanoma
  GI50: > 50 µM
  TGI: > 50 µM
KM12 colon
  GI50: > 50 µM
  TGI: > 50 µM
SNB-19 CNS
  GI50: > 50 µM
  TGI: > 50 µM
IGROV1 ovarian
  GI50: 20.2 µM
  TGI: > 50 µM
ACHN renal
  GI50: > 50 µM
  TGI: > 50 µM
PC-3 prostate
  GI50: > 50 µM
  TGI: > 50 µM
UACC-62 melanoma
  GI50: > 50 µM
  TGI: > 50 µM
NCI-H460 lung
  GI50: > 50 µM
  TGI: > 50 µM
SN12C renal
  GI50: > 50 µM
  TGI: > 50 µM
NCI/ADR-RES ovarian
  GI50: > 50 µM
  TGI: > 50 µM
MDA-MB-231 breast
  GI50: > 50 µM
  TGI: > 50 µM
SF-539 CNS
  GI50: > 50 µM
  TGI: > 50 µM
K-562 leukemia
  GI50: > 50 µM
  TGI: > 50 µM
HCT-116 colon
  GI50: > 50 µM
  TGI: > 50 µM
SR leukemia
  GI50: 31.8 µM
  TGI: > 50 µM
SK-MEL-28 melanoma
  GI50: > 50 µM
  TGI: > 50 µM
RPMI-8226 leukemia
  GI50: 14 µM
  TGI: > 50 µM
786-0 renal
  GI50: > 50 µM
  TGI: > 50 µM
M14 melanoma
  GI50: > 50 µM
  TGI: > 50 µM
SK-OV-3 ovarian
  GI50: > 50 µM
  TGI: > 50 µM
HL-60(TB) leukemia
  GI50: 16.2 µM
  TGI: > 50 µM
UO-31 renal
  GI50: > 50 µM
  TGI: > 50 µM
SK-MEL-2 melanoma
  GI50: > 50 µM
  TGI: > 50 µM
MOLT-4 leukemia
  GI50: 25.4 µM
  TGI: > 50 µM
